# Where two headings read alike, the source gives them in different places.
# Columns and labels:
# BRD4-BD12 (1-477) = BRD4-BD12 (1-477) (Homo sapiens (Human), UniProt O60885); assay: Alphascreen binding assay BRD4-BD12; conditions: BRD4(1 2) H4; read-out: Biochemical activity (IC50 μM) BRD4(1 2) H4
# In short: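 First, compound was preincubated 1 h at room temperature with the His-tagged BRD4 protein (BD1 44-164 or tandem BD12 1-477) and acetylated H4 peptide. Next, donor and acceptor beads were added at 7.5 μg/ml final. After 30 min, AlphaScreen emission was recorded.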
# MV-4-11 cells = assay: Oncology cell growth assay MV-4-11 (CellTiter Glo); assay type: cell-based; conditions: Homo sapiens, MV4-11, 72 h, read-out: Cell activity (IC50 μM) MV-4-11 3d-Growth
# In short: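 MV-4-11 AML cells (MLL-AF4), 3000 per well, exposed to 8-point 1:3 compound titration from 10 μM top concentration (0.2% DMSO) for 72 h. Viability by CellTiter Glo luminescence, normalized to DMSO controls; pIC50 from four-parameter curve fit.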
# bromodomain = assay: at least one of the bromodomain cell assays of Example 57; assay type: cell-based; conditions: at least one of the bromodomain cell assays described in Example 57; read-out: IC50 in at least one of the bromodomain cell assays
Structure (SMILES),IC50 (BRD4-BD12 (1-477)) [µM],IC50 (MV-4-11 cells) [µM],IC50 (bromodomain) [nM],"IC50 (MV-4-11 cells; MV-4-11, 3d growth) [µM]"
"Cc1noc(C)c1-c1cnc2c(-c3cnn(CC(F)(F)F)c3)cn(Cc3ncccn3)c2c1 [P-0353, 3,5-dimethyl-4-[1-(pyrimidin-2-ylmethyl)-3-[1-(2,2,2-trifluoroethyl)pyrazol-4-yl]pyrrolo(3,2-b]pyridin-6-yl]isoxazole]",< 1,< 1,< 10000,
Cc1noc(C)c1-c1cnc2c(I)cn(CC3CCCC3)c2c1 [P-0549],< 1,,< 10000,< 1
"Cc1noc(C)c1-c1cnc2c(-c3cnn(C)c3)cn([C@H](C)c3ccccn3)c2c1 [P-0519, 3,5-dimethyl-4-[3-(1-methylpyrazol-4-yl)-1-[(1R)-1-(2-pyridyl)ethyl]pyrrolo[3,2-b]pyridin-6-yl]isoxazole]",< 1,,< 10000,< 1
"Cc1noc(C)c1-c1cnc2c(-c3ccc(C(=O)O)cc3)cn([C@@H](C)c3ccccc3)c2c1 [P-0560, 4-[6-(3,5-dimethylisoxazol-4-yl)-1-[(1S)-1-phenylethyl]pyrrolo[3,2-b]pyridin-3-yl]benzoic acid]",< 1,,< 10000,< 1
"[2H]C([2H])(C1CCC(F)(F)CC1)n1cc(-c2cnc(OC)nc2)c2ncc(-c3c(C)noc3C)cc21 [P-0346, 4-[1-[dideuterio-(4,4-difluorocyclohexyl)methyl]-3-(2-methoxypyrimidin-5-yl)pyrrolo[3,2-b]pyridin-6-yl]-3,5-dimethyl-isoxazole]",< 1,< 1,< 10000,
"COc1ncc(-c2cn(CC3CCC(F)(F)CC3)c3cc(-c4c(C)noc4C)cnc23)cn1 [P-0391, 4-[1-[(4,4-difluorocyclohexyl)methyl]-3-(2-methoxypyrimidin-5-yl)pyrrolo[3,2-b]pyridin-6-yl]-3,5-dimethyl-isoxazole]",< 1,< 1,< 10000,
"Cc1noc(C)c1-c1cnc2c(-c3ccc(C(=O)NC4CC4)nc3)cn(CC3CCC(F)(F)CC3)c2c1 [P-0536, N-cyclopropyl-5-[1-[(4,4-difluorocyclohexyl)methyl]-6-(3,5-dimethylisoxazol-4-yl)pyrrolo[3,2-b]pyridin-3-yl]pyridine-2-carboxamide]",< 1,,< 10000,< 1
"Cc1noc(C)c1-c1cnc2c(-c3cnn(C)c3)cn(CC3(F)CCC(F)(F)CC3)c2c1 [P-0381, 3,5-dimethyl-4-[3-(1-methylpyrazol-4-yl)-1-[(1,4,4-trifluorocyclohexyl)methyl]pyrrolo[3,2-b]pyridin-6-yl]isoxazole]",< 1,< 1,< 10000,
"Cc1noc(C)c1-c1cnc2c(-c3cnn(CC(=O)O)c3)cn(CC3(F)CCC(F)(F)CC3)c2c1 [P-0386, 2-[4-[6-(3,5-dimethylisoxazol-4-yl)-1-[(1,4,4-trifluorocyclohexyl)methyl]pyrrolo[3,2-b]pyridin-3-yl]pyrazol-1-yl]acetic acid]",< 1,10 to 200,< 10000,
"CCn1cc(-c2cn(CC3CCC(F)(F)CC3)c3cc(-c4c(C)nnn4C)cnc23)cn1 [P-0427, 1-[(4,4-difluorocyclohexyl)methyl]-6-(3,5-dimethyltriazol-4-yl)-3-(1-ethylpyrazol-4-yl)pyrrolo[3,2-b]pyridine]",< 1,,< 10000,< 1
"Cc1noc(C)c1-c1cnc2c(-c3cccc(O)c3)cn(CC3(F)CCCCC3)c2c1 [P-0488, 3-[6-(3,5-dimethylisoxazol-4-yl)-1-[(1-fluorocyclohexyl)methyl]pyrrolo[3,2-b]pyridin-3-yl]phenol]",< 1,,< 10000,< 1
"Cc1noc(C)c1-c1cnc2c(-c3ccc(C(=O)O)cc3)cn([C@H](c3ccccc3)c3ccccn3)c2c1 [P-0722, 4-[6-(3,5-dimethylisoxazol-4-yl)-1-[(R)-phenyl(2-pyridyl)methyl]pyrrolo[3,2-b]pyridin-3-yl]benzoic acid]",< 1,,< 10000,< 1
"Cc1noc(C)c1-c1cnc2c(-c3ccc(C(=O)O)c(F)c3F)cn(CC3CCC(F)(F)CC3)c2c1 [P-0416, 4-[1-[(4,4-difluorocyclohexyl)methyl]-6-(3,5-dimethylisoxazol-4-yl)pyrrolo[3,2-b]pyridin-3-yl]-2,3-difluoro-benzoic acid]",< 1,< 1,< 10000,
"Cc1noc(C)c1-c1cnc2c(-c3cnn(C(F)F)c3)cn(CC3(F)CCC(O)CC3)c2c1 (stereo not drawn) [P-0261, 4-[[3-[1-(difluoromethyl)pyrazol-4-yl]-6-(3,5-dimethylisoxazol-4-yl)pyrrolo[3,2-b]pyridin-1-yl]methyl]-4-fluoro-cyclohexanol]",< 1,< 1,< 10000,
"Cc1noc(C)c1-c1cnc2c(-c3ccc(C(=O)O)cc3)cn(CC3CCC4(CC3)CC4)c2c1 [P-0582, 4-[6-(3,5-dimethylisoxazol-4-yl)-1-(spiro[2.5]octan-6-ylmethyl)pyrrolo[3,2-b]pyridin-3-yl]benzoic acid]",< 1,,< 10000,< 1
"Cc1noc(C)c1-c1cnc2c(-c3cn[nH]c3)cn(CC3CCC(F)(F)CC3)c2c1 [P-0392, 4-[1-[(4,4-difluorocyclohexyl)methyl]-3-(1H-pyrazol-4-yl)pyrrolo[3,2-b]pyridin-6-yl]-3,5-dimethyl-isoxazole]",< 1,< 1,< 10000,
"COC(=O)c1ccc(-c2cn(Cc3ccccn3)c3cc(-c4c(C)noc4C)cnc23)cc1 [P-0435, methyl 4-[6-(3,5-dimethylisoxazol-4-yl)-1-(2-pyridylmethyl)pyrrolo[3,2-b]pyridin-3-yl]benzoate]",< 1,,< 10000,< 1
"Cc1noc(C)c1-c1cnc2c(-c3ccc4[nH]c(=O)[nH]c4c3)cn(CC3(F)CCCCC3)c2c1 [P-0498, 5-[6-(3,5-dimethylisoxazol-4-yl)-1-[(1-fluorocyclohexyl)methyl]pyrrolo[3,2-b]pyridin-3-yl]-1,3-dihydrobenzimidazol-2-one]",< 1,,< 10000,< 1
"COC(=O)c1ccc(-c2cn(CC3CCCCCCC3)c3cc(-c4c(C)noc4C)cnc23)cc1 [P-0578, methyl 4-[1-(cyclooctylmethyl)-6-(3,5-dimethylisoxazol-4-yl)pyrrolo[3,2-b]pyridin-3-yl]benzoate]",< 1,,< 10000,1 to 10
"CCOC(=O)c1ccc(-c2cn(CC3CCC(F)(F)CC3)c3cc(-c4c(C)noc4C)cnc23)cc1Cl [P-0534, ethyl 2-chloro-4-[1-[(4,4-difluorocyclohexyl)methyl]-6-(3,5-dimethylisoxazol-4-yl)pyrrolo[3,2-b]pyridin-3-yl]benzoate]",< 1,,< 10000,1 to 10
"Cc1noc(C)c1-c1cnc2c(-c3cnn(CC(F)(F)F)c3)cn(CC3(F)CC=C(F)CC3)c2c1 (stereo not drawn) [P-0356, 4-[1-[(1,4-difluorocyclohex-3-en-1-yl)methyl]-3-[1-(2,2,2-trifluoroethyl)pyrazol-4-yl]pyrrolo[3,2-b]pyridin-6-yl]-3,5-dimethyl-isoxazole]",< 1,< 1,< 10000,

# — patent US10519177B2, “Heterocyclic compounds and uses thereof” (Plexxikon Inc., priority 2013, dated 2019)
